Data on five molecules can be found in article PMC9647539, “Computational and functional studies of the PI(4,5)P2 binding site of the TRPM3 ion channel reveal interactions with other regulators” (The Journal of Biological Chemistry, 2022).

The test system of one experiment is hTRPM3 V990M. Also on record: method as in PMID 32343227. Conditions: V990M mutant; read-out: EC50 concentration of PregS; cited from earlier work.
Another experiment concerns hTRPM3. Also on record: method as in PMID 32343227. To be noted: hTRPM3 WT; read-out: EC50 concentration of PregS; cited from earlier work.
A further experiment relates to hTRPM3 P1090Q. Also on record: method as in PMID 32343227. Conditions: P1090Q mutant; read-out: EC50 concentration of PregS; cited from earlier work.
Experiment [1] concerns TRPM3_1325 splice variant or its mutants. In words: PregS concentration dependence, TEVC in Xenopus oocytes. Format: cell-based, human. To be noted: 100 mV; N991A and K992A mutants. As to the method: (§1) To express exogenous proteins, RNA was microinjected into oocytes using a nanoliter-injector system (Warner Instruments). RNA was in vitro transcribed from the linearized pGEMSH vectors, which contained the complementary DNA clones for hTRPM3 ([38]) rat TRPM8, human M2 muscarinic (hM2) receptor, or Gβγ subunits by using the mMessage mMachine T7 Transcription Kit (Thermo Fisher Scientific). […] For coexpression of TRPM3 constructs and Gβ1γ2 subunits, 40 ng of TRPM3 was coinjected with 5 ng Gβ1 and 5 ng Gγ2. In the case of coexpressing TRPM3 and hM2 receptors, these two were injected at 1:1 ratio, 40 ng each. […]
(§2) Oocytes were placed in extracellular solution, which contained 97 mM NaCl, 2 mM KCl, 1 mM MgCl2, and 5 mM Hepes, pH 7.4. Currents were measured with a protocol consisting a voltage step from the 0 mV holding potential to −100 mV, followed by a ramp to 100 mV once every 0.5 s with a GeneClamp 500B amplifier and analyzed with the pClamp 9.0 software (Molecular Devices). Currents were recorded by thin wall glass pipettes that contained inner filament and were filled with 1% agarose in 3 M KCl. […] For wortmannin experiments specifically, PregS, or menthol-induced currents were measured, then the same oocyte was incubated with 35 μM wortmannin for 2 h, and currents were measured again using the same protocol. […]

Experiment [2] addresses T1, hTRPM3 or its mutant N991A (Homo sapiens, UniProt Q9HCF6, N1016A).
T1 construct: expressed in transfected cells; host or cells: Xenopus laevis oocytes (excised inside-out patches)
T1 sequence (Q9HCF6 1-1325 isoform Q9HCF6-10 N991A): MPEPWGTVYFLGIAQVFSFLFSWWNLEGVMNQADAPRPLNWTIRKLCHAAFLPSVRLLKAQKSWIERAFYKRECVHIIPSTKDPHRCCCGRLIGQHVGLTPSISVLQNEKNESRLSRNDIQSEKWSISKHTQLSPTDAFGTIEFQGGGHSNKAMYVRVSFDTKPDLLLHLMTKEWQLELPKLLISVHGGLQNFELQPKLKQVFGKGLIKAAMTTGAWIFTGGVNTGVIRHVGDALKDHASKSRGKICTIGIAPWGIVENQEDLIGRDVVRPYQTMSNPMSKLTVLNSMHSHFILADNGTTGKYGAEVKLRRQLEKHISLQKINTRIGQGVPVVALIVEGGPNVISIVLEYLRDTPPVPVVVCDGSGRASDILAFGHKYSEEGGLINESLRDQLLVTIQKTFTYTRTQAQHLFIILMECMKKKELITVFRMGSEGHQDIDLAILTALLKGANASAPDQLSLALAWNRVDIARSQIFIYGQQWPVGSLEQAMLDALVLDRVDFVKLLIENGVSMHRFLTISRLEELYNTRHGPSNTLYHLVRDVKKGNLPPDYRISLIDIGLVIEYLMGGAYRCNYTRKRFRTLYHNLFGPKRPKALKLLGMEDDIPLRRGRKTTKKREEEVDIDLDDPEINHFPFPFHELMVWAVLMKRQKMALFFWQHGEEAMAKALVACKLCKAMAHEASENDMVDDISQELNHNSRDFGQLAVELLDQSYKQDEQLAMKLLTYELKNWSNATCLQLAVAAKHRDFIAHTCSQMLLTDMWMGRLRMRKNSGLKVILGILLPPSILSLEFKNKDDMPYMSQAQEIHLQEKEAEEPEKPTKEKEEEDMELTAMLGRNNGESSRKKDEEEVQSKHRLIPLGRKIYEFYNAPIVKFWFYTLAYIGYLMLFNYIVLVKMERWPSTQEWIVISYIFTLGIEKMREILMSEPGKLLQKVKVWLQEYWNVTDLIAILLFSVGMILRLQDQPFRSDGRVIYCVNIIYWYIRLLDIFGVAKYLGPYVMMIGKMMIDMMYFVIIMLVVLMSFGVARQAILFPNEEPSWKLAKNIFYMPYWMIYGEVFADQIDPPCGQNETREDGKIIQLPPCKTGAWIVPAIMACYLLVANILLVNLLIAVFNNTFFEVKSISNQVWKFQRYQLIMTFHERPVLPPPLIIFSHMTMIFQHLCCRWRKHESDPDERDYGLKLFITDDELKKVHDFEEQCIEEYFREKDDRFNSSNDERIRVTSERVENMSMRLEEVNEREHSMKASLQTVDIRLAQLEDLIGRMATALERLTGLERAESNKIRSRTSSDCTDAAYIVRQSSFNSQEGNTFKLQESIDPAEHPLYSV
The experiment in a line: Excised inside-out patch clamp, relative effect of PI(4)P compared to PI(4,5)P2. Format: cell-based. To be noted: 25 μM diC8 PI(4)P vs 25 μM diC8 PI(4,5)P2, 100 μM PregS in pipette. As to the method: Oocytes were placed in a recording chamber filled with bath solution, which contained 97 mM KCl, 5 mM EGTA, 10 mM Hepes, pH 7.4. Before starting measurements, the vitelline layer was carefully removed with forceps without damaging the oocyte. Then a giga-ohm seal was formed using a borosilicate glass pipette (World Precision Instruments) with resistance from 0.8 to 1 MΩ. The pipette was filled with a solution containing 97 mM NaCl, 2 mM KCl, 1 mM MgCl2, 5 mM Hepes, and 100 μM PregS at pH 7.4. Currents were measured by an Axopatch 200B amplifier and analyzed with the pClamp 9.0 software. Compounds were dissolved in the bath solution and delivered to the inner side of cell membrane by a custom-made gravity-driven perfusion system. Either 25 μM PI(4,5)P2, 25 μM PI(4)P, or 10 μM AASt PI(4,5)P2 was applied in these experiments to reactivate TRPM3. At the end of every recording, 30 μg/ml Poly-Lys (Poly-K) was applied.
For orientation: In patch-clamp work, channel activity is measured electrically.

In experiment [3] the test system is Rat TRPM8 or its mutants. The experiment in a line: Menthol concentration dependence, TEVC in Xenopus oocytes. The format is cell-based. Conditions: 100 mV; R851A and W682Q mutants. As to the method: as §1, §2
The test system of experiment [4] is mouse TRPM3α2 (mTRPM3α2) or its mutant N993A. The experiment in a line: Whole-cell patch clamp with rapamycin-inducible pseudojanin phosphatase in HEK293 cells. Format: cell-based. Conditions: 100 nM rapamycin. As to the method: Human embryonic kidney 293 cells were purchased from American Type Culture Collection (catalog number: CRL-1573). Human embryonic kidney 293 cells were cultured in minimum essential medium supplemented with 10% fetal bovine serum and 100 IU/ml penicillin plus 100 μg/ml streptomycin. Cells were incubated in 5% CO2 at 37 °C. Cells were tested to confirm that they were not infected by mycoplasma. Cells were used up to 25 passages and then discarded. Cells were transiently transfected with complementary DNA encoding different TRPM3 constructs (200–400 ng) using the Effectene reagent (Qiagen). mTRPM3α2 and its mutant were cloned into the bicistronic pCAGGS/IRES-GFP vector. The components of rapamycin-inducible pseudojanin phosphatases ([40]) were cotransfected with mTRPM3α2 at 1:1 ratio.
After 24 h of transfection, cells were plated on poly-D-lysine–coated 12 mm cover slips. Experiments were performed 48 to 72 h after transfection. […] After formation of gigaohm-resistance seals, the whole cell configuration was established, and currents were recorded by applying a ramp protocol once every 1 s. […] Data were collected and analyzed with the pClamp10.6 (Clampex) acquisition software (Molecular Devices) and further analyzed and plotted with Prism 9 (GraphPad by Dotmatics). […]

Experiment [5] deals with Rat TRPM8 or its mutants. The experiment in a line: Wortmannin inhibition of menthol-induced currents (PI(4,5)P2 depletion), TEVC in Xenopus oocytes. Format: cell-based. To be noted: 35 μM wortmannin 2 h; 500 μM menthol; 100 mV; R851Q and W682Q mutants. As to the method: as §1, §2
Experiment [6] deals with Human TRPM3_1325 splice variant or its mutants. Also on record: method as in PMID 26123195. To be noted: 35 nM wortmannin (selectively inhibits PI3K); cited from earlier work.
For experiment [7] the test system is unchanged. The experiment in a line: Wortmannin inhibition of PregS-induced currents (PI(4,5)P2 depletion), TEVC in Xenopus oocytes. Format: cell-based. To be noted: 35 μM wortmannin 2 h; for inhibition of PregS-induced currents after wortmannin treatment, compared with WT TRPM3: 100 mV; for inhibition of PregS-induced currents after wortmannin treatment, WT vs disease mutants: V990M and P1090Q. As to the method: Next, we mutated the predicted PI(4,5)P2-interacting residues in TRPM3 and tested the effects of the mutations on sensitivity to inhibition by decreasing PI(4,5)P2 levels. We expressed the WT and mutant channels in Xenopus oocytes and performed two-electrode voltage clamp (TEVC) experiments. We stimulated channel activity with 50 μM PregS and measured current amplitudes, then incubated the oocytes with 35 μM wortmannin for 2 h, and measured PregS-induced currents in the same oocytes (Fig. 3, A and B). Wortmannin at this concentration inhibits phosphatidylinositol 4-kinases and has been used to inhibit the activity of PI(4,5)P2-dependent ion channels ([39]). […] Mutating a PI(4,5)P2-interacting residue is expected to increase inhibition by high concentrations of wortmannin ([39]). […] We also generated two additional mutations in the TRP domain in residues that are not in contact with PI(4,5)P2, K1128Q and R1141Q.
To express exogenous proteins, RNA was microinjected into oocytes using a nanoliter-injector system (Warner Instruments). RNA was in vitro transcribed from the linearized pGEMSH vectors, which contained the complementary DNA clones for hTRPM3 ([38]) rat TRPM8, human M2 muscarinic (hM2) receptor, or Gβγ subunits by using the mMessage mMachine T7 Transcription Kit (Thermo Fisher Scientific). […] For coexpression of TRPM3 constructs and Gβ1γ2 subunits, 40 ng of TRPM3 was coinjected with 5 ng Gβ1 and 5 ng Gγ2. In the case of coexpressing TRPM3 and hM2 receptors, these two were injected at 1:1 ratio, 40 ng each. Oocytes were used for electrophysiological experiments after 48 to 72 h incubation at 16 °C after RNA injection.
Oocytes were placed in extracellular solution, which contained 97 mM NaCl, 2 mM KCl, 1 mM MgCl2, and 5 mM Hepes, pH 7.4. Currents were measured with a protocol consisting a voltage step from the 0 mV holding potential to −100 mV, followed by a ramp to 100 mV once every 0.5 s with a GeneClamp 500B amplifier and analyzed with the pClamp 9.0 software (Molecular Devices). Currents were recorded by thin wall glass pipettes that contained inner filament and were filled with 1% agarose in 3 M KCl. In all TEVC experiments, different concentrations of PregS were applied to activate TRPM3 channels, and various concentrations of menthol were used to trigger responses of TRPM8 channels. The hM2 receptor was activated by 5 μM acetylcholine. For wortmannin experiments specifically, PregS, or menthol-induced currents were measured, then the same oocyte was incubated with 35 μM wortmannin for 2 h, and currents were measured again using the same protocol. In the bar graphs in Figure 3, the individual panels show experiments that were performed on the same day.

pregnenolone sulfate [PregS]: the EC50 in the experiment on hTRPM3 V990M was 0.6 µM; in the experiment on hTRPM3, 17 µM; in the experiment with hTRPM3 P1090Q, 7 µM. Moreover, in experiment [1], the “PregS dose response, compared with WT TRPM3” value is listed as “shifted the PregS dose response to the right”.

Turning to `CCCCCCCC(=O)OC[C@H](COP(=O)(O)O[C@H]1[C@H](O)[C@@H](O)[C@H](OP(=O)(O)O)[C@@H](O)[C@H]1O)OC(=O)CCCCCCC` [PI(4)P], the “relative effect of PI(4)P compared with PI(4,5)P2” value in [2] is on record as “did not change”.

Regarding `CC1CCC(C(C)C)C(O)C1` (centres unmarked) [menthol], the “menthol dose response, compared with WT TRPM8” value in the experiment on Rat TRPM8 or its mutants [3] was “right shifted”.

With `CO[C@H]1C[C@@H]2CC[C@@H](C)[C@@](O)(O2)C(=O)C(=O)N2CCCC[C@H]2C(=O)O[C@H]([C@H](C)C[C@@H]2CC[C@@H](O)[C@H](OC)C2)CC(=O)[C@H](C)/C=C(\C)[C@@H](O)[C@@H](OC)C(=O)[C@H](C)C[C@H](C)/C=C/C=C/C=C/1C` [rapamycin], the “inhibition by rapamycin (PI(4,5)P2 depletion), N993A compared with WT mTRPM3α2” value in experiment [4] (currents induced by 25 μM PregS plus 10 μM clotrimazole) was “significantly larger inhibition”; in experiment [4] (currents stimulated with 25 μM PregS), “significantly higher inhibition”.

Turning to `COC[C@H]1OC(=O)c2coc3c2[C@@]1(C)C1=C(C3=O)[C@@H]2CCC(=O)[C@@]2(C)C[C@H]1OC(C)=O` [wortmannin], the “inhibition of menthol-induced currents by wortmannin, compared with WT TRPM8” value with Rat TRPM8 or its mutants [5] was “significantly higher level of inhibition”. The “inhibition of TRPM3 by wortmannin” value in [6] is given as “did not inhibit TRPM3”. Moreover, the “inhibition of PregS-induced currents after wortmannin treatment, compared with WT TRPM3” value is given as “small but significant increase” in experiment [7] (50 μM PregS, R1141Q mutant); “significantly higher inhibition” in experiment [7] (50 μM PregS, mutants W761F, N991A, K992A and R1131Q). Besides, the “inhibition of PregS-induced currents after wortmannin treatment, WT vs disease mutants” value in [7] (50 μM PregS) was “inhibited to a similar extent”; in [7] (PregS at respective EC50 (17, 0.6, 7 μM)), “inhibited to a similar extent to WT channels”.
